Where “and” joins values, the source holds several entries; their conditions need not be identical. Identical values can stand only once. Marks after values point to notes of the source that are not given here.
Experiments:
[1] = test system: human naive T-cells (PBMC); assay: Primary in vitro sensitization culture of PBMC with or without mitomycin C treated T2 cells, 3H-thymidine uptake; type: cell-based
[2] = test system: human naive T-cells (PBMC); assay: as above; type: cell-based; conditions: for response of PBMC, FIG. 4: PBMC incubated 6 days with mitomycin C treated T2 cells
Protocol: Preparation of peripheral blood mononuclear cells (PBMC). The research protocol was approved by the Committee on Research Involving Human Subjects of SUNY @ Stony Brook. After informed consent, heparinized blood was obtained by venipuncture. PBMC (peripheral blood mononuclear cells, which include lymphocytes and macrophages/monocytes) were prepared from heparinized peripheral blood by density centrifugation over Ficoll/Hypaque (Pharmacia, Piscataway, N.J.). PBMC were then washed 3 times in serum free wash medium consisting of SMEM (Gibco, Grand Island, N.Y.), and mixed (1:1) with AIM V medium (Gibco). At no time did the PBMC contact animal serum. PBMC were counted, and resuspended at 2×10^6 cells/ml in AIM V medium (Gibco).
Preparation and mitomycin C treatment of T2 cells. T2 cells were cultured in AIM V media (Gibco). Prior to treatment, they were washed, counted, and resuspended in AIM V media at 2×10^6 cells/ml. Mitomycin C (Sigma, St Louis, Mo.) was then added at 30 μg/ml for a 2 hour incubation at 37° C. The T2 cells were then washed 4 times in serum free wash media, counted with trypan blue dye exclusion, and resuspended at 1×10^6 cells/ml.
(§1) In vitro sensitization cultures. Cell cultures were performed in 96 well U-bottom trays (Linbro), with a total volume of 0.2 ml/well of AIM V medium (Gibco). PBMC (2×10^6/ml) were first admixed with equal volumes of T2 cells (1×10^6/ml), and 0.1 ml of the cell mixture was added to each well. Test compounds were then added (0.1 ml/well) at twice the desired final concentration. Each well contained 1×10^5 PBMC, 5×10^4 T2 cells, and the test compound. Control wells contained 0.1 ml of media rather than test compound. The final ratio of PBMC to T2 cells was 2:1. There were 6 replicate wells per group. The 96-well trays were then cultured for 6 days at 37° C. in a 7.5% Co2 incubator. After 6 days, 1 μCi of ^3H-thymidine was added to each well. The wells were harvested 18 hours later, and ^3H-thymidine uptake was determined with a scintillation counter (Pharmacia LKB Nuclear, Gaithersburg, Md.).

[3] = test system: T-cells (E+) and non-T cells (E-); assay: In vitro sensitization culture of purified T-cells / non-T cells mixtures with mitomycin C treated T2 cells, 3H-thymidine uptake; type: cell-based, human; conditions: for MEAN/SEM (3H-thymidine uptake) / S.I.: T2 cells YES, paraphenylenediamine 10 μg/ml
Protocol: Purification of T-lymphocytes. Sheep erythrocyte receptor positive (E+) T-cells and negative (E−) non-T-cells were isolated by rosetting followed by centrifugation over a Ficoll-Hypaque gradient and lysis of sheep erythrocytes by ammonium chloride as described (38). The (E+) population was greater than 95% CD3+ as determined by cytofluorgraph analysis (below).
as §1
Lymphocyte proliferation assays are generally the result of T-lymphocyte proliferation. It was confirmed that this was also true of this novel in vitro sensitization system. T-cells (70%) were mixed with irradiated (6,000R) non-T cells (30%) for a test of in vitro sensitization to paraphenylenediamine in the presence of mitomycin C treated T2 cells. In a reciprocal group, non-T cells (70%) were mixed with irradiated T-cells (30%). These cell mixtures were added to the culture system, admixed with mitomycin C treated T2 cells, and paraphenylenediamine. […] The T2 cells are not functioning as antigen presenting cells (which is to be expected since the T2 cells lack antigen presenting Major Histocompatibility Complex antigens HLA-DR and HLA-A,B,C), but rather function as accessory cells.

[4] = PBMC from 4 donors, 6 days with mitomycin C treated T2 cells, each compound 3.3 μM to 60 μM
[5] = PBMC 1 × 10^5/well, no T2 cells, 3 μg/ml
[6] = PBMC at 1 × 10^5/well, T2 cells at 1 × 10^5/well, 3 μg/ml
[7] = PBMC, NO T2 CELLS, paraphenylenediamine 10 μg/ml
[8] = PBMC + T2 CELLS (mitomycin C treated), paraphenylenediamine 10 μg/ml
[9] = PBMC at 1 × 10^5/well, T2 cells at 5 × 10^4/well, 3 μg/ml
[10] = T-cells 30% (6,000R), non-T cells 70%
[11] = T-cells 70%, non-T cells 30% (6,000R)

## CCCCCCCCCCCCOS(=O)(=O)[O-].[Na+] [SDS, sodium dodecyl sulfate]
[1]; [4]
  donor PBMC that responded, FIG. 2: none
[2]
  response of PBMC, FIG. 4: negative response
[2]; culture with accessory T2 cells
  induction of a response of naive human T-lymphocytes in the culture system: did not induce a response

## Oc1ccccc1O [catechol]
[2]
  response of PBMC, FIG. 4: positive response

## Nc1ccc(O)cc1 [p-aminophenol]
[2]
  response of PBMC, FIG. 4: positive response

## Nc1ccc(N)cc1 [paraphenylenediamine]
[1]; [5]
  MEAN dpm (3H-thymidine uptake of 6 replicate wells): 2869 dpm
  S.I. (Stimulation index: response to antigen/response to media): 0.96
[1]; [6]
  MEAN dpm (3H-thymidine uptake of 6 replicate wells): 7856 dpm
  S.I. (Stimulation index: response to antigen/response to media): 1.12
[1]; PBMC from 6 donors, 6 days with mitomycin C treated T2 cells
  donor PBMC that responded, FIG. 3: 3/6
[1]; [7]
  MEAN (3H-thymidine uptake of 6 replicate wells): 3054
  S.I. (Stimulation index: response to antigen/response to media): 1.03^
[1]; absence of T2 cells, paraphenylenediamine 3 μg/ml, HIV gp160 P18 peptide 10 μg/ml
  response of naive donor PBMC to antigen: no response
[2]; [8]
  MEAN (3H-thymidine uptake of 6 replicate wells): 11973
  S.I. (Stimulation index: response to antigen/response to media): 2.09^e
[2]; PBMC admixed with T2 cells at a ratio of 2:1, paraphenylenediamine 3 μg/ml, HIV gp160 P18 peptide 10 μg/ml
  response of naive donor PBMC to antigen: statistically significant response
[2]; [9]
  MEAN dpm (3H-thymidine uptake of 6 replicate wells): 6935 dpm
  S.I. (Stimulation index: response to antigen/response to media): 1.97^c
[2]; [4]
  donor PBMC that responded, FIG. 2: 3/4 and 3
[2]; PBMC from 4 donors, presence or absence of mitomycin C treated T2 cells, 3 μg/ml, 6 days
  response of PBMC (3H-thymidine uptake), FIG. 1: Only in the presence of T2 cells was there a response
[2]
  response of PBMC, FIG. 4: positive response
[3]; [10]
  MEAN/SEM (3H-thymidine uptake): 3096/446
  S.I.: 0.57^
[3]; [11]
  MEAN/SEM (3H-thymidine uptake): 50220/2643
  S.I.: 1.94^e
[3]; T-cells YES, non-T cells NO
  MEAN/SEM (3H-thymidine uptake): 2263/317
  S.I.: 0.67^
[3]; T-cells admixed with T2 cells in the absence of non-T cells
  response to paraphenylenediamine: no response
[3]; group where the T-cells had been irradiated (6,000R), mitomycin C treated T2 cells
  response to paraphenylenediamine: no response
[3]; groups with non-irradiated T-cells, mitomycin C treated T2 cells
  response to paraphenylenediamine: only detected in the groups with non-irradiated T-cells

Source: patent publication US6713250B1, “Identification of human allergens and T-lymphocyte antigens in vitro” (The Research Foundation of State University of New York, priority 1997, dated 2004)
